In patent publication US9522914B2, “Azole derivative” (TAISHO PHARMACEUTICAL CO., LTD, priority 2011, dated 2016):

Molecular target: Human V1b receptor (Homo sapiens (Human), UniProt P47901)
Assay: Binding Test for V1b Receptor ([3H]AVP, crude membrane preparation of 293FT cells)
Settings: inhibition of [3H]AVP binding (0.4 to 1 nmol/L), room temperature, 60 minutes
Outline: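 Crude membranes from 293FT cells transiently expressing human V1b, incubated with [3H]AVP (0.4 to 1 nmol/L) and compound (0.01 nmol/L–1 μmol/L final) in Tris pH 7.4 with MgCl2 and 0.1% BSA, 60 min at room temperature. Bound label collected by filtration. Nonspecific binding defined with unlabeled AVP; IC50 from dose-response curve.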

Sequence of Human V1b receptor (P47901 whole entry): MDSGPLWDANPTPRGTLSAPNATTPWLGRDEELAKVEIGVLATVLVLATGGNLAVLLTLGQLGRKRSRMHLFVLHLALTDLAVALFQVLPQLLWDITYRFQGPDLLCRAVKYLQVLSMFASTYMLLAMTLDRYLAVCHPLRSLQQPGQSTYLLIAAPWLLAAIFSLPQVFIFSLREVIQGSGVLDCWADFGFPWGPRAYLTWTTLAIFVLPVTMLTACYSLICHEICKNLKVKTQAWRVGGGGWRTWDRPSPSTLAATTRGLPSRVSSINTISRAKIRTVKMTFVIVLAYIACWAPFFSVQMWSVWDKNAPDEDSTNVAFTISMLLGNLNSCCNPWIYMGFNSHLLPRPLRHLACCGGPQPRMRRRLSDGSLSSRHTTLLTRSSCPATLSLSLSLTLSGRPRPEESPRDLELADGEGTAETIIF

SMILES	IC50 [nM]
COc1cccc(-n2c(CC(=O)NC(C)C)nn(-c3ccc(CCN4C5CCC4COC5)cc3)c2=O)c1 [Example D-39, 2-[4-(3-methoxyphenyl)-1-{4-[2-(3-oxa-8-azabicyclo[3.2.1]oct-8-yl)ethyl]phenyl}-5-oxo-4,5-dihydro-1H-1,2,4-triazol-3-yl]-N-(propan-2-yl)acetamide]	10 to 100
COc1cccc(-n2c(CC(=O)NC(C)C)nn(-c3ccc(CCN4C5CCC4COC5)cn3)c2=O)c1 [Example D-40, 2-[4-(3-methoxyphenyl)-1-{5-[2-(3-oxa-8-azabicyclo[3.2.1]oct-8-yl)ethyl]pyridin-2-yl}-5-oxo-4,5-dihydro-1H-1,2,4-triazol-3-yl]-N-(propan-2-yl)acetamide]	100 to 1000
COc1cc(-n2c(CC(=O)NC(C)C)nn(-c3ccc(CCN4C5CCC4COC5)c(OC)c3)c2=O)ccc1F [Example D-41, 2-[4-(4-fluoro-3-methoxyphenyl)-1-{3-methoxy-4-[2-(3-oxa-8-azabicyclo[3.2.1]oct-8-yl)ethyl]phenyl}-5-oxo-4,5-dihydro-1H-1,2,4-triazol-3-yl]-N-(propan-2-yl)acetamide]	2.7
COc1cccc(-n2c(CC(=O)NC(C)C)nn(-c3ccc(CCN4C5CCC4COC5)c(OC)c3)c2=O)c1 [Example D-42, 2-[1-{3-methoxy-4-[2-(3-oxa-8-azabicyclo[3.2.1]oct-8-yl)ethyl]phenyl}-4-(3-methoxyphenyl)-5-oxo-4,5-dihydro-1H-1,2,4-triazol-3-yl]-N-(propan-2-yl)acetamide]	7.9
CC(C)NC(=O)Cc1nn(-c2ccc(CCN3CCCC3)cc2)c(=O)n1-c1ccc(F)c(Cl)c1 [Example D-43, 2-[4-(3-chloro-4-fluorophenyl)-5-oxo-1-{4-[2-(pyrrolidin-1-yl)ethyl]phenyl}-4,5-dihydro-H-1,2,4-triazol-3-yl]-N-(propan-2-yl)acetamide]	15
CC(C)NC(=O)Cc1nn(-c2ccc(CCN3CCCCC3)cc2)c(=O)n1-c1ccc(F)c(Cl)c1 [Example D-44, 2-[4-(3-chloro-4-fluorophenyl)-5-oxo-1-{4-[2-(piperidin-1-yl)ethyl]phenyl}-4,5-dihydro-1H-1,2,4-triazol-3-yl]-N-(propan-2-yl)acetamide]	16
CC(C)NC(=O)Cc1nn(-c2ccc(CCN3CCCC3)cc2)c(=O)n1-c1cccc(Cl)c1 [Example D-45, 2-[4-(3-chlorophenyl)-5-oxo-1-{4-[2-(pyrrolidin-1-yl)ethyl]phenyl}-4,5-dihydro-1H-1,2,4-triazol-3-yl]-N-(propan-2-yl)acetamide]	10 to 100
CC(C)NC(=O)Cc1nn(-c2ccc(CCN3CCCCC3)cc2)c(=O)n1-c1cccc(Cl)c1 [Example D-46, 2-[4-(3-chlorophenyl)-5-oxo-1-{4-[2-(piperidin-1-yl)ethyl]phenyl}-4,5-dihydro-1H-1,2,4-triazol-3-yl]-N-(propan-2-yl)acetamide]	10 to 100
CC(C)NC(=O)Cc1nn(-c2ccc(CCN3CC=CCC3)cc2)c(=O)n1-c1cccc(Cl)c1 [Example D-47, 2-[4-(3-chlorophenyl)-1-{4-[2-(3,6-dihydropyridin-1(2H)-yl)ethyl]phenyl}-5-oxo-4,5-dihydro-1H-1,2,4-triazol-3-yl]-N-(propan-2-yl)acetamide]	100 to 1000
CC(C)NC(=O)Cc1nn(-c2ccc(CCN3CCSCC3)cc2)c(=O)n1-c1cccc(Cl)c1 [Example D-48, 2-[4-(3-chlorophenyl)-5-oxo-1-{4-[2-(thiomorpholin-4-yl)ethyl]phenyl}-4,5-dihydro-1H-1,2,4-triazol-3-yl]-N-(propan-2-yl)acetamide]	10 to 100
CC1CCN(CCc2ccc(-n3nc(CC(=O)NC(C)C)n(-c4cccc(Cl)c4)c3=O)cc2)CC1 [Example D-49, 2-[4-(3-chlorophenyl)-1-{4-[2-(4-methylpiperidin-1-yl)ethyl]phenyl}-5-oxo-4-,5-dihydro-1H-1,2,4-triazol-3-yl]-N-(propan-2-yl)acetamide]	100 to 1000
